Key:
[1] = one study, Hannuksela et al. 1975; cited from earlier work
[2] = Amount of MCT required to dissolve calcipotriol in a tested ointment composition; type: physicochemical
[3] = Skin penetration and permeation, Franz diffusion cells; type: in vitro ADME; conditions: addition of menthol to the composition; 21 hours; pig ear skin; FIG. 1
Protocol: To investigate the skin penetration and permeation of calcipotriol from compositions of the invention, a skin diffusion experiment was conducted. Full thickness skin from pig ears was used in the study. The ears were kept frozen at −18° C. before use. On the day prior to the experiment the ears were placed in a refrigerator (5±3° C.) for slow defrosting. On the day of the experiment, the hairs were removed using a veterinary hair trimmer. The skin was cleaned for subcutaneous fat using a scalpel and two pieces of skin were cut from each ear and mounted on Franz diffusion cells in a balanced order.
Static Franz-type diffusion cells with an available diffusion area of 3.14 cm^2 and receptor volumes ranging from 8.6 to 11.1 ml—were used in substantially the manner described by T. J. Franz, “The finite dose technique as a valid in vitro model for the study of percutaneous absorption in man”, in Current Problems in Dermatology, 1978, J. W. H. Mall (Ed.), Karger, Basel, pp. 58-68. The specific volume was measured and registered for each cell. A magnetic bar was placed in the receptor compartment of each cell. […]
The in vitro skin permeation of each test composition was tested in 6 replicates (i.e. n=6). […] A glass spatula was used for the application, and the residual amount of the composition was determined so as to give the amount of the composition actually applied on the skin. […]

Row | MCT required to completely dissolve calcipotriol [2] | skin permeation of calcipotriol [3] | Compound | number of irritant reactions to propylene glycol [1] [%]
1 |  |  | CC(O)CO (stereo not drawn) [propylene glycol] | 12.5
2 | about 50% | significant increase | C=C1/C(=C\C=C2/CCC[C@]3(C)[C@@H]([C@H](C)/C=C/[C@@H](O)C4CC4)CC[C@@H]23)C[C@@H](O)C[C@@H]1O [calcipotriol, Calcipotriol] | 
